These results are taken from US8981111B2 (priority 2008, dated 2015).

SMILES strings stand for the structures.

This data set in a line: log P (HPLC/MS data of the preparation examples).
Setting [1] is: LC-MS, method [b]: pH 2.7 with 0.1% formic acid in water and acetonitrile, linear gradient 10% to 95% acetonitrile.
Where [2] appears, read: LC-MS, method [c]: pH 7.8 with 0.001 molar ammonium hydrogen carbonate solution in water, linear gradient 10% to 95% acetonitrile.
The mark [3] stands for this setting: HPLC (LC-MS) method [b]: pH 2.7, 0.1% formic acid in water and acetonitrile, linear gradient 10% to 95% acetonitrile, EEC directive 79/831 Annex V.A8.

As to `CC(C)CCC(=O)Nc1cccc(CON=C(c2cccc(F)c2)c2nccn2C)n1` [Example 348], under setting [1], the log p is 2.42^[b].

Regarding `COC(C(=O)Nc1cccc(CON=C(c2cccc(F)c2)c2nccn2C)n1)c1ccccc1` (stereo not drawn) [Example 349], the log p under setting [1] was 2.42^[b].

On to `Cc1ncoc1C(=NOCc1csc(N)n1)c1ccccc1` [Example 351, 4-[({[(4-methyl-1,3-oxazol-5-yl)(phenyl)methylene]amino-}oxy)methyl]-1,3-thiazol-2-amine], for which the log p under setting [1] was 1.46^[b]. `Cc1ncoc1C(=NOCc1cccc(N2C(=O)c3ccccc3C2=O)n1)c1ccccc1` [Example 352, 2-{6-[({[(4-methyl-1,3-oxazol-5-yl)(phenyl)methylene]amino}oxy)methyl]pyridin-2-yl}-1H-isoindole-1,3(2H)-dione] gave a chromatographic logP (reversed phase HPLC column, pH 2.7) of 3.25. For `Cc1ncoc1C(=NOCc1cccc(N2C(=O)c3ccccc3C2=O)n1)c1ccccc1` [Example 353], under setting [1], the log p is 3.09^[b]. Regarding `CCCCC#Cc1cccc(CON=C(c2ccccc2)c2nncn2C)n1` [Example 354], the log p under setting [1] was 3.23^[b]. Still for that read-out and setting: next, `COc1ccc(C(=NOCc2cccc(N3C(=O)c4ccccc4C3=O)n2)c2ncc(C(F)(F)F)cc2Cl)cc1Br` [Example 356]: 4.78^[b].

`COc1ccc(C(=NOCc2csc(N)n2)c2ncc(C(F)(F)F)cc2Cl)cc1Br` [Example 357]: the log p under setting [1] was 2.8^[b]. On the same count and under the same terms, under `COc1ccc(C(=NOCc2cccc(N)n2)c2ncc(C(F)(F)F)cc2Cl)cc1Br` [Example 358] stands 2.54^[b]. As to `COc1ccc(C(=NOCc2cccc(NC(=O)C(C)(C)C)n2)c2ncc(C(F)(F)F)cc2Cl)cc1Br` [Example 359], the log p under setting [1] is 5.2^[b]. Consider `COc1ccc(C(=NOCc2cccc(NC(=O)C3CC3)n2)c2ncc(C(F)(F)F)cc2Cl)cc1Br` [Example 360], for which the log p under setting [1] is 4.54^[b]. Same read-out and setting: next, `COc1ccc(C(=NOCc2cccc(NC(=O)C(F)(F)F)n2)c2ncc(C(F)(F)F)cc2Cl)cc1Br` [Example 361]: 4.97^[b]. As for `COCCOCC(=O)Nc1cccc(CON=C(c2ccc(OC)c(Br)c2)c2ncc(C(F)(F)F)cc2Cl)n1` [Example 362], under setting [1], the log p was 4.51^[b]. Turning to `CCCCCOC(=O)Nc1cccc(CON=C(c2ccc(OC)c(Br)c2)c2ncc(C(F)(F)F)cc2Cl)n1` [Example 363], under setting [1], the log p was 6.13^[b].

Regarding `COc1ccc(C(=NOCc2cccc(NC(=O)c3ccccc3)n2)c2ncc(C(F)(F)F)cc2Cl)cc1Br` [Example 364], under setting [1], the log p was 5.23^[b]. `COc1ccc(C(=NOCc2cccc(NC(=O)Cc3ccccc3)n2)c2ncc(C(F)(F)F)cc2Cl)cc1Br` [Example 365]: the log p under setting [1] is 5.08^[b]. With `CCCCCCCCC(=O)Nc1cccc(CON=C(c2ccc(OC)c(Br)c2)c2ncc(C(F)(F)F)cc2Cl)n1` [Example 366], the log p under setting [1] was 6.65^[b]. As to `COc1ccc(C(=NOCc2cccc(NC(=O)C(C)C)n2)c2ncc(C(F)(F)F)cc2Cl)cc1Br` [Example 367], the log p under setting [1] is 4.73^[b]. For the molecule `CCCCCC(=O)Nc1cccc(CON=C(c2ccc(OC)c(Br)c2)c2ncc(C(F)(F)F)cc2Cl)n1` [Example 368], the log p under setting [1] is 5.44^[b]. `CCCCCCC(=O)Nc1cccc(CON=C(c2ccc(OC)c(Br)c2)c2ncc(C(F)(F)F)cc2Cl)n1` [Example 369]: the log p under setting [1] was 5.82^[b]. For the molecule `COc1ccc(C(=NOCc2cccc(NC(=O)CC(C)C)n2)c2ncc(C(F)(F)F)cc2Cl)cc1Br` [Example 370], the log p under setting [1] was 5.03^[b]. For the molecule `CCCCCOC(=O)Nc1nc(CON=C(c2ccc(OC)c(Br)c2)c2ncc(C(F)(F)F)cc2Cl)cs1` [Example 371], under setting [1], the log p is 5.59^[b]. As for `Cc1cnc(C)c(C(=NOCc2cccc(N3C(=O)c4ccccc4C3=O)n2)c2ccccc2)n1` [Example 372], the log p under setting [1] is 3.35^[b]. For the molecule `Cc1cnc(C)c(C(=NOCc2cccc(N)n2)c2ccccc2)n1` [Example 373], the log p under setting [1] is 1.31^[b]. Consider `CCCOC(=O)Nc1cccc(CON=C(c2ccccc2)c2nc(C)cnc2C)n1` [Example 374], for which the log p under setting [1] was 3.81^[b]. With `CCCCCCOC(=O)Nc1cccc(CON=C(c2ccccc2)c2nc(C)cnc2C)n1` [Example 375], under setting [1], the log p was 5.2^[b]. As to `CCCCOC(=O)Nc1cccc(CON=C(c2ccccc2)c2nc(C)cnc2C)n1` [Example 376], the log p under setting [1] was 4.29^[b]. With `CCCCCC(=O)Nc1cccc(CON=C(c2ccccc2)c2nc(C)cnc2C)n1` [Example 377], under setting [1], the log p is 4.09^[b]. On to `CCCCCOC(=O)Nc1cccc(CON=C(c2ccccc2)c2nc(C)cnc2C)n1` [Example 378], for which, under setting [1], the log p is 4.75^[b]. Same read-out and setting: next, `CCCCC(=O)Nc1cccc(CON=C(c2ccccc2)c2nc(C)cnc2C)n1` [Example 379]: 3.65^[b]; `CCCCCCC(=O)Nc1cccc(CON=C(c2ccccc2)c2nc(C)cnc2C)n1` [Example 380]: 4.54^[b]. As for `CCCC(=O)Nc1cccc(CON=C(c2ccccc2)c2nc(C)cnc2C)n1` [Example 381], the log p under setting [1] was 3.21^[b]. Still for that read-out and setting: under `Nc1ccnc(CON=C(c2ccsc2)c2snc(Cl)c2Cl)n1` [Example 382] stands 1.86^[b]; under `Nc1nc(CON=C(c2ccsc2)c2snc(Cl)c2Cl)cs1` [Example 383], 2.51^[b]. Regarding `CC(C)(C)C(=O)Nc1ccnc(CON=C(c2ccsc2)c2snc(Cl)c2Cl)n1` [Example 384], the log p under setting [1] is 4.67^[b].

Regarding `Cn1ccnc1C(=NOCc1cccc(N2C(=O)c3ccccc3C2=O)n1)c1cccs1` [Example 385], the log p under setting [1] is 1.78^[b]. On to `Cn1ccnc1C(=NOCc1nccc(N)n1)c1cccs1` [Example 386], for which the log p under setting [2] was 1.13^[c].

On to `Cn1ccnc1C(=NOCc1cccc(N)n1)c1cccs1` [Example 387], for which the log p under setting [2] is 1.74^[c]. As to `CCCCCC(=O)Nc1ccnc(CON=C(c2cccs2)c2nccn2C)n1` [Example 388], the log p under setting [1] was 1.93^[b]. Consider `CC(C)CC(=O)Nc1ccnc(CON=C(c2cccs2)c2nccn2C)n1` [Example 389], for which, under setting [1], the log p is 1.59^[b]. For `Cn1ccnc1C(=NOCc1nccc(NC(=O)C(C)(C)C)n1)c1cccs1` [Example 390], the log p under setting [1] was 1.56^[b]. As for `Cn1ncnc1C(=NOCc1cccc(N)n1)c1cccs1` [Example 391], the log p under setting [1] is 0.82^[b]. As for `Cn1ncnc1C(=NOCc1cccc(NC(=O)CCc2ccccc2)n1)c1cccs1` [Example 392], under setting [1], the log p was 3.17^[b]. Consider `CCCCCC(=O)Nc1cccc(CON=C(c2cccs2)c2ncnn2C)n1` [Example 393], for which the log p under setting [1] was 3.23^[b]. For `CCCCCOC(=O)Nc1cccc(CON=C(c2cccs2)c2ncnn2C)n1` [Example 394], the log p under setting [1] is 3.82^[b]. For the molecule `Cn1ncnc1C(=NOCc1cccc(NC(=O)C(C)(C)C)n1)c1cccs1` [Example 395], the log p under setting [1] was 2.82^[b]. Turning to `CC(C)CC(=O)Nc1cccc(CON=C(c2cccs2)c2ncnn2C)n1` [Example 396], the log p (HPLC, method [a]: pH 2.3 with 0.1% phosphoric acid and acetonitrile as eluent) was 2.78^[a];; the log p under setting [1] is 2.78^[b]. For the molecule `Cn1ncnc1C(=NOCc1nccc(N)n1)c1cccs1` [Example 397], the log p under setting [1] is 0.47^[b]. For the molecule `Cn1ncnc1C(=NOCc1csc(N)n1)c1cccs1` [Example 398], under setting [1], the log p is 0.92^[b]. `CCCCCC(=O)Nc1nc(CON=C(c2cccs2)c2ncnn2C)cs1` [Example 399]: under setting [1], the log p was 3.23^[b]. Take `CCCCCOC(=O)Nc1nc(CON=C(c2cccs2)c2ncnn2C)cs1` [Example 400]: the log p under setting [1] was 3.53^[b]. For the molecule `Cn1ncnc1C(=NOCc1csc(NC(=O)C(C)(C)C)n1)c1cccs1` [Example 401], the log p under setting [1] was 2.8^[b]. Take `Cn1ncnc1C(=NOCc1csc(NC(=O)Cc2ccccc2)n1)c1cccs1` [Example 402]: the log p under setting [1] is 2.82^[b]. Take `Cn1ncnc1C(=NOCc1csc(NC(=O)CCc2ccccc2)n1)c1cccs1` [Example 403]: the log p under setting [1] was 3.09^[b]. Take `CC(C)CC(=O)Nc1nc(CON=C(c2cccs2)c2ncnn2C)cs1` [Example 404]: the log p under setting [1] is 2.73^[b]. On to `CCCCCC(=O)Nc1ccnc(CON=C(c2cccs2)c2ncnn2C)n1` [Example 405], for which the log p under setting [1] was 3^[b]. As for `CCCCCOC(=O)Nc1ccnc(CON=C(c2cccs2)c2ncnn2C)n1` [Example 406], under setting [1], the log p was 3.31^[b].

As to `Cn1ncnc1C(=NOCc1nccc(NC(=O)C(C)(C)C)n1)c1cccs1` [Example 407], under setting [1], the log p was 2.59^[b]. Still for that read-out and setting: under `Cn1ncnc1C(=NOCc1nccc(NC(=O)Cc2ccccc2)n1)c1cccs1` [Example 408] stands 2.64^[b]. Turning to `Cn1ncnc1C(=NOCc1nccc(NC(=O)CCc2ccccc2)n1)c1cccs1` [Example 409], the log p under setting [1] was 2.9^[b].

In the case of `CC(C)CC(=O)Nc1ccnc(CON=C(c2cccs2)c2ncnn2C)n1` [Example 410], under setting [1], the log p is 2.56^[b]. `CCCCCOC(=O)Nc1cccc(CON=C(c2cccs2)c2nccn2C)n1` [Example 411]: the log p under setting [1] is 2.71^[b]. Same read-out and setting: under `CC(C)CC(=O)Nc1cccc(CON=C(c2cccs2)c2nccn2C)n1` [Example 412] stands 1.91^[b]. As for `Cn1ccnc1C(=NOCc1cccc(NC(=O)C(C)(C)C)n1)c1cccs1` [Example 413], the log p under setting [1] was 1.78^[b]. Still for that read-out and setting: next, `Cn1ccnc1C(=NOCc1cccc(NC(=O)Cc2ccccc2)n1)c1cccs1` [Example 414]: 2.05^[b]. As to `CC(C)C(=O)Nc1cccc(CON=C(c2cccs2)c2nccn2C)n1` [Example 415], the log p under setting [3] was 1.65^[b].

For `Cn1ncnc1C(=NOCc1cccc(N2C(=O)c3ccccc3C2=O)n1)c1cccs1` [Example 416], the log p under setting [3] is 2.64^[b].

Turning to `Cn1cncc1C(=NOCc1cccc(N2C(=O)c3ccccc3C2=O)n1)c1ccsc1` [Example 417], the log p under setting [3] was 1.73^[b].
